Measurements from publication PMC8533333, “Melatonin Analogues Potently Inhibit MAO-B and Protect PC12 Cells against Oxidative Stress” (Antioxidants, 2021).

Experiments:
PC12 cells [1] = experiment: Cytotoxicity in PC12 cells (MTT assay); format: cell-based, rat; settings: 10 and 30 μM, 24 h
Procedure: (§1) Control cells were incubated in an equivalent volume of DMSO to a final concentration of 0.3%. Neuroprotective effects of the tested compounds on the toxicity induced by 6-OHDA or rotenone in PC12 cells were evaluated as described previously with slight modifications. In brief, cells were pre-treated with the tested compounds or rasagiline at the indicated concentrations for 4 h. Next, they were exposed to 6-OHDA (50 μM) or rotenone (1 μM) for 24 h. In another set of experiments, the influence of HO-1 inhibitor, ZnPP, on the neuroprotective effects of the tested compounds against 6-OHDA-induced oxidative damage was investigated as previously reported. Briefly, the cells were pre-treated with the tested compounds for 4 h and then incubated with 0.2 µM of ZnPP for 30 min. Subsequently, 6-OHDA was added at a final concentration of 50 µM and incubated for 24 h.
(§2) After the desired treatment, cell viability was determined by MTT assay as described previously. Briefly, MTT was added to the cells at the final concentration of 0.5 mg/mL, which was followed by incubation for 3 h at 37 °C. […] The absorbance of the dissolved solution was measured at 550 nm using a microplate reader (SpectraMax M2^e, Molecular Devices, Sunnyvale, CA, USA). The cell viability was presented as the percentage of the absorbance measured in the vehicle-treated control cells.
Cell viabilities were measured by MTT assay.

[2] = molecular target: T1, Human recombinant MAO-B (hMAO-B) (Homo sapiens, UniProt P27338); experiment: MAO-B enzyme assay (Amplex Red, resorufin fluorescence); format: biochemical; settings: for Selectivity Index (SI): IC50 (MAO-A)/IC50 (MAO-B); for IC50: five doses 10-0.001 µM, triplicate; for % Inhibition of MAO-B at 10 µM / inhibition at 10 µM: single dose 10 µM
T1 construct: purchased Sigma Aldrich; host or cells: insect cells
T1 sequence (P27338 1-520): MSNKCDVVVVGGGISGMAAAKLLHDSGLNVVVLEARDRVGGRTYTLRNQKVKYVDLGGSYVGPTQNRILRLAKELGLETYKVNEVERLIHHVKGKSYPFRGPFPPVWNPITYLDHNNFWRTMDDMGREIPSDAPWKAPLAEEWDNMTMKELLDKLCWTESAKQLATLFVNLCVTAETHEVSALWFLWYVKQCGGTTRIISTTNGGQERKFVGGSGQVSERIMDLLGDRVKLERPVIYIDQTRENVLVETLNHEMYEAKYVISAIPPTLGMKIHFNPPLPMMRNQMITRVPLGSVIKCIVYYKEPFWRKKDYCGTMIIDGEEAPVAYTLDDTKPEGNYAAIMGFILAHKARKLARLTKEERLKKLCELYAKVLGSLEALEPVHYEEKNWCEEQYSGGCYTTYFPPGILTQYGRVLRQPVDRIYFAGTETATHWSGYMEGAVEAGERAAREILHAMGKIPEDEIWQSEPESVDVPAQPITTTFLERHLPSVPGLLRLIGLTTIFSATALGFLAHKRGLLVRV
Procedure: Biological evaluation of the synthesized melatonin derivatives over both MAO-A and MAO-B was performed as reported previously. A detailed description of the protocol is in the Supplementary Materials.
First, the synthesized melatonin analogues (3a–x) were biologically evaluated over an MAO-B recombinant enzyme. The experiment was performed using Amplex® Red reagent technology. This technology offers quantitative enzyme activity sensitive detection, a wider dynamic range, and fluorescence emission outside the range of compound autofluorescence (if any). The Amplex® Red reagent is a colorless substrate that reacts with H2O2 in a 1:1 stoichiometry to produce a highly fluorescent resorufin; therefore, the induced inhibitory effects of the melatonin analogues over MAO-B were examined via spectrophotometry where the fluorescence rate of resorufin dye formation was measured.
Accordingly, compounds 3n, 3r, and 3u–w were further tested to determine their IC50 values over MAO-B in triplicate from the dose–response inhibition curves using Sigma-Plot software 13.0.
6. Materials and methods of monoamine oxidase (MAO) enzyme assay
The inhibitory activity of MAO-A, B enzyme of the compounds was evaluated based on previously described method. The MAO activity was measured in relative fluorescence units (RFU) evoked by peroxidase-catalyzed oxidation of Amplex Red® to resorufin, in which H2O2 generated by MAO reaction was used as the […]. Human recombinant MAO-A (hMAO-A) and MAO-B (hMAO-B) enzyme expressed in insect cells were obtained from Sigma Aldrich. The 2 μL of test compound in DMSO (final concentration: 1 nM – 10 μM) was treated with 98 μL of hMAO enzyme solution in 50 mM sodium phosphate buffer (pH 7.4, final protein amounts: ~1.25 μg protein/well for MAO-A and ~2.5 μg protein/well for MAO -B) on 96-well black plate and incubated for 15 min at 37 °C. Then 100 μL of reaction working solution which is mixed solution of 400 μM Amplex Red® (Cayman, final concentration: 200 μM), 2 U/mL horseradish peroxidase ( Sigma-Aldrich, final concentration: 1 U/mL) and 2 mM substrate ( p-tyramine for MAO -A, benzylamine for MAO -B, Sigma-Aldrich, final concentration: 1 mM) in 50 mM sodium phosphate buffer (pH 7.4) were added and incubated for 20 min at 37 °C in the dark. The fluorescent intensity was quantified using a microplate reader (SpectraMax®i3, Molecular Device) with an excitation at 545 nm and an emission at 590 nm. The 50% inhibitory concentrations (IC50) of compounds were determined as the mean ± S.E.M. in triplicate from the dose-response inhibition curves using SigmaPlot® 13.0. […]

PC12 cells [3] = settings: ZnPP 0.2 µM, 6-OHDA 50 µM 24 h
Procedure: as §1, §2

[4] = tested on: LPO in rat brain homogenates; experiment: Lipid peroxidation (LPO) induced by Fe2+ and L-ascorbic acid in rat forebrain homogenates; format: biochemical; settings: 100 μM; Fe2+ 10 µM and L-ascorbic acid 100 µM
Procedure: The effects of the investigated compounds on the LPO levels in rat forebrain homogenates were evaluated as previously described. Sprague–Dawley (SD) rats were obtained from Daehan Biolink (Chungbuk, Korea) and maintained in the animal facility with controlled temperature (22 ± 2 °C) and relative humidity (40–60%). All the experimental steps and protocols of the animal experiments were approved by the Institutional Animal Ethical Committee of Dongguk University (Approval Number: IACUC-2019-001-2). To initiate LPO reaction, 3–4 mg protein/mL diluent of SD rat forebrain homogenates in 20 mM Tris-HCl buffer (pH 7.4) and several concentrations of the tested compounds dissolved in DMSO were added to a reaction mixture with 10 µM Fe^2+ and 100 µM L-ascorbic acid and incubated for 60 min at 37 °C. After halting the reaction by adding 28% w/v trichloroacetic acid and 1% w/v TBA in succession, the solution was heated for 15 min at 100 °C, which was followed by centrifugation at 3000 rpm for 10 min at 4 °C to separate the precipitates. […] The percentage of inhibition was calculated by the following formula:Inhibition (%) = 100 × (1 − Abssample/Abscontrol) (Abscontrol, the absorbance of control without tested compounds; Abssample, the absorbance of sample with tested compounds). […]

Selectivity Index (SI) [2] | IC50 [2] [nM] | % Inhibition of MAO-B at 10 µM [2] [%] | inhibition at 10 µM [2] [%] | Compound | cytotoxic effects on PC12 cells (PC12 cells [1]) | effect of ZnPP on protective effects against 6-OHDA-induced toxicity (PC12 cells [3]) | inhibition of lipid peroxide formation (LPO) [4] [%]
>109 | 910 | 87.00 ± 0.03 | > 70 | O=C(Nc1ccc2[nH]ccc2c1)c1cccc(Br)c1 [3r, 3-Bromo-N-(1H-indol-5-yl)benzamide] | did not show any significant cytotoxic effects | completely abolished | 44.4 ± 2.2
>71 | 1410 | 76.79 ± 0.27 | > 70 | O=C(Nc1ccc2[nH]ccc2c1)c1cccc(Cl)c1 [3n, 3-Chloro-N-(1H-indol-5-yl)benzamide] | did not show any significant cytotoxic effects | completely abolished | 23.5 ± 1.7
